Molecular target: Indoleamine 2,3-dioxygenase 1 (Homo sapiens, UniProt P14902)
Assay: Inhibition of human indoleamine 2,3-dioxygenase expressed in Escherichia coli by spectrophotometric activity assay

Chain of Indoleamine 2,3-dioxygenase 1 (P14902 whole entry): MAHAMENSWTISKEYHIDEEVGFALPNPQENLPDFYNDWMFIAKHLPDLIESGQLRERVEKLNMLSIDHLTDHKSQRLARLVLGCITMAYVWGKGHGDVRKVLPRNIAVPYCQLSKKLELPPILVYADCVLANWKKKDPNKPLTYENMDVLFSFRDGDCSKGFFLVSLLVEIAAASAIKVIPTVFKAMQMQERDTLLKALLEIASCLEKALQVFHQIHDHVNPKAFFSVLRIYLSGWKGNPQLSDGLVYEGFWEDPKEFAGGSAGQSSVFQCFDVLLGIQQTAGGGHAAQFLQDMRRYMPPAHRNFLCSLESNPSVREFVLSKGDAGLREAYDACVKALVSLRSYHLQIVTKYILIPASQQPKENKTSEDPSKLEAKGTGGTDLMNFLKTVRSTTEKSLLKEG

Compound: CCc1c(C)cc2c(c1O)C(=O)C1=C(C2=O)C(C)(C)OC1(OC)C(=O)OC (stereo not drawn) [ANNULIN C]
- Ki: 140 nM

Compound: CCC1=C(C)C(=O)c2cc3c(c(O)c2C1=O)C(=O)C(C)(O)C(=O)C3(C)C (stereo not drawn)
- Ki: 1400 nM

Compound: COc1c(C(C)=O)c(C)cc2cc3c(c(O)c12)C(=O)C(C)(C)C(=O)C3(C)C [GARVEATIN C]
- Ki: 1200 nM
